Like-named read-outs stand apart in the source and are kept apart here.
Tests used:
human DGKα = human DGKα (Homo sapiens, UniProt P23743); test: DGKα Biochemical Activity Assay (ADP-Glo); settings: recombinant DGKα 1 nM, 100 μM ATP, 18:1 DAG/POPS/octylglucoside micelles, 1 hour at 25° C.; geometric mean; read-out: HTBS DGKa 1X ATP KM IC50;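 further: luminescent detection of ADP produced as DGKα phosphorylates DAG to phosphatidic acid, IC50 from four-parameter nonlinear curve fit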
[1] = test system: Jurkat NFκB-luciferase cells; test: Jurkat NFκB-Luciferase Assay; format: cell-based; settings: Homo sapiens
Method in brief: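 Jurkat NFκB-luciferase reporter cells at 1 million cells/ml in RPMI with 10% FBS were added to antibody-coated, compound-containing wells. Luciferase activity read by One-Glo Ex luminescence 7 minutes after reagent addition.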

[2] = Jurkat NFκB-luciferase cells activated with anti-CD3 antibody (OKT3), 2.5 hrs at 37° C., geometric mean, read-out: DGK NFKb Luciferase EC50
[3] = Jurkat, […], read-out: DGK NFKb Luciferase EC50 (nM)

Chain of human DGKα (P23743 whole entry): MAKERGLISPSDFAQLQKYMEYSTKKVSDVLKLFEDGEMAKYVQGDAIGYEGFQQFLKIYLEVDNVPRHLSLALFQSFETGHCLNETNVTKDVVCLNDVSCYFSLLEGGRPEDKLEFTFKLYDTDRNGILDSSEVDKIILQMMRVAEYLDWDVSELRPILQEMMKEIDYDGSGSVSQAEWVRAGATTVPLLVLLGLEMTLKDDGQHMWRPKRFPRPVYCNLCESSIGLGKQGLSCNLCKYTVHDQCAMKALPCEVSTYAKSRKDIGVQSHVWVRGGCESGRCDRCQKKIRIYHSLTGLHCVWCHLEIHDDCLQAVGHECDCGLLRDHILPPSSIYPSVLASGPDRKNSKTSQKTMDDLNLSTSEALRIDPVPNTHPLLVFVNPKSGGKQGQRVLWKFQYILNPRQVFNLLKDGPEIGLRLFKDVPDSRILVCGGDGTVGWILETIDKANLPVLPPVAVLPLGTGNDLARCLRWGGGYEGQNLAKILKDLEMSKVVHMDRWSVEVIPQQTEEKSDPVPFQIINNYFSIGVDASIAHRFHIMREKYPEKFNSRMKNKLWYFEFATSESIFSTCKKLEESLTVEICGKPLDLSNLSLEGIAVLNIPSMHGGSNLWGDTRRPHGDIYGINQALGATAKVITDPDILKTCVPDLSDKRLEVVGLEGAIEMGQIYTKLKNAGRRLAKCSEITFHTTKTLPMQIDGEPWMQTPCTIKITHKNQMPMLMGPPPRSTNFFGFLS

Row | Structure (SMILES) | IC50 (human DGKα) [nM] | EC50 [1, 2] [nM] | EC50 [1, 3] [nM]
1 | Cc1nnc2nc(N3CCN(C)Cc4c(C#CC5(C)CC5)cccc43)c3c(F)cccc3n12 [Example 165, 6-fluoro-1-methyl-5-[4-methyl-6-[2-(1-methylcyclopropyl)ethynyl]-3,5-dihydro-2H-1,4-benzodiazepin-1-yl]-[1,2,4]triazolo[4,3-a]quinazoline] | 7.6 | 5.35 | 
2 | Cc1nnc2nc(N3CCN(C)Cc4c(C#CC5(C(C)(F)F)CC5)cccc43)c3c(F)cccc3n12 [Example 166, 5-[6-[2-[1-(1,1-difluoroethyl)cyclopropyl]ethynyl]-4-methyl-3,5-dihydro-2H-1,4-benzodiazepin-1-yl]-6-fluoro-1-methyl-[1,2,4]triazolo[4,3-a]quinazoline] | 17.4 | 15.8 | 
3 | Cc1nnc2nc(N3CCCOc4c(C#CC5CC5)cncc43)c3c(F)c(F)ccc3n12 [Example 167, 9-(2-cyclopropylethynyl)-5-(6,7-difluoro-1-methyl-[1,2,4]triazolo[4,3-a]quinazolin-5-yl)-3,4-dihydro-2H-pyrido[4,3-b][1,4]oxazepine] | 18 | 5.84 | 
4 | Cc1nnc2nc(N3CCN(C)Cc4c(C#CC(C)(C)C(F)(F)F)cccc43)c3c(F)c(F)ccc3n12 [Example 168, 6,7-difluoro-1-methyl-5-[4-methyl-6-(4,4,4-trifluoro-3,3-dimethyl-but-1-ynyl)-3,5-dihydro-2H-1,4-benzodiazepin-1-yl]-[1,2,4]triazolo[4,3-a]quinazoline] | 10.4 | 5.41 | 
5 | Cc1nnc2nc(N3CCN(C)Cc4c(C#CC5(C(F)(F)F)CC5)cccc43)c3c(F)c(F)ccc3n12 [Example 169, 6,7-difluoro-1-methyl-5-[4-methyl-6-[2-[1-(trifluoromethyl)cyclopropyl]ethynyl]-3,5-dihydro-2H-1,4-benzodiazepin-1-yl]-[1,2,4]triazolo[4,3-a]quinazoline] | 7.3 | 4.39 | 
6 | Cc1nnc2nc(N3CCN(C)Cc4c(C#CC(C)(C)O)cccc43)c3cc(F)ccc3n12 [Example 170, 4-[1-(7-fluoro-1-methyl-[1,2,4]triazolo[4,3-a]quinazolin-5-yl)-4-methyl-3,5-dihydro-2H-1,4-benzodiazepin-6-yl]-2-methyl-but-3-yn-2-ol] | 51 |  | 358
7 | Cc1nnc2nc(N3CCN(C)Cc4c(C#CC(C)(C)C(F)(F)F)cccc43)c3cc(F)ccc3n12 [Example 171, 7-fluoro-1-methyl-5-[4-methyl-6-(4,4,4-trifluoro-3,3-dimethyl-but-1-ynyl)-3,5-dihydro-2H-1,4-benzodiazepin-1-yl]-[1,2,4]triazolo[4,3-a]quinazoline] | 14.8 | 7.36 | 
8 | Cc1nnc2nc(N3CCN(C)Cc4c(C#CC5(C(F)(F)F)CC5)cccc43)c3cc(F)ccc3n12 [Example 172, 7-fluoro-1-methyl-5-[4-methyl-6-[2-[1-(trifluoromethyl)cyclopropyl]ethynyl]-3,5-dihydro-2H-1,4-benzodiazepin-1-yl]-[1,2,4]triazolo[4,3-a]quinazoline] | 8.77 | 3.23 | 
9 | Cc1nnc2nc(N3CCCOc4c(C#CC5(C)CC5)cncc43)c3cc(F)ccc3n12 [Example 173, 5-(7-fluoro-1-methyl-[1,2,4]triazolo[4,3-a]quinazolin-5-yl)-9-[2-(1-methylcyclopropyl)ethynyl]-3,4-dihydro-2H-pyrido[4,3-b][1,4]oxazepine] | 17.2 | 2.03 | 
10 | CC(C)(O)C#Cc1cccc2c1CCCN2c1nc2nncn2c2ccccc12 [Example 174, 2-methyl-4-[1-([1,2,4]triazolo[4,3-a]quinazolin-5-yl)-3,4-dihydro-2H-quinolin-5-yl]but-3-yn-2-ol] | 26.7 |  | 12
11 | FC(F)(F)C1(C#Cc2cccc3c2CCCN3c2nc3nncn3c3ccccc23)CC1 [Example 175, 5-[5-[2-[1-(trifluoromethyl)cyclopropyl]ethynyl]-3,4-dihydro-2H-quinolin-1-yl]-[1,2,4]triazolo[4,3-a]quinazoline] | 110 | 1.74 | 
12 | Cc1nnc2nc(N3CCCCc4c(C#CC(C)(C)NC(=O)C5(C(F)(F)F)CC5)cccc43)c3c(F)c(F)ccc3n12 [Example 176] | 12.4 | 6.67 | 
13 | Cc1nnc2nc(N3CCCCc4c(C#CC5(NC(=O)C6(C(F)(F)F)CC6)CC5)cccc43)c3c(F)cccc3n12 [Example 177, N-(1-((1-(6-Fluoro-1-methyl-[1,2,4]triazolo[4,3-a]quinazolin-5-yl)-2,3,4,5-tetrahydro-1H-benzo[b]azepin-6-yl)ethynyl)cyclopropyl)-1-(trifluoromethyl)cyclopropane-1-carboxamide] | 6.74 | 23.4 | 
14 | Cc1nnc2nc(N3CCOCc4c(C#CC(C)(C)NS(=O)(=O)C5(C(F)F)CC5)cccc43)c3c(F)cccc3n12 [Example 178, 1-(Difluoromethyl)-N-[3-[1-(6-fluoro-1-methyl-[1,2,4]triazolo[4,3-a]quinazolin-5-yl)-3,5-dihydro-2H-4,1-benzoxazepin-6-yl]-1,1-dimethyl-prop-2-ynyl]cyclopropanesulfonamide] | 44.9 | 10.2 | 

Now from value to compound, other results behind:

Row | IC50 (human DGKα) [nM] | EC50 [1, 2] [nM] | Structure (SMILES) | EC50 [1, 3] [nM]
15 | 9.59 | 9.13 | Cc1nc(C#Cc2cccc3c2COCCN3c2nc3nnc(C)n3c3cccc(F)c23)co1 [Example 179, 1-(6-Fluoro-1-methyl-[1,2,4]triazolo[4,3-a]quinazolin-5-yl)-6-[2-(2-methyloxazol-4-yl)ethynyl]-3,5-dihydro-2H-4,1-benzoxazepine] | 
16 | 5.12 | 13.5 | Cc1nnc2nc(N3CCOCc4c(C#CC(C)(C)NC(=O)C(C)(C)C(C)(F)F)cccc43)c3c(F)cccc3n12 [Example 180, 3,3-Difluoro-N-[3-[1-(6-fluoro-1-methyl-[1,2,4]triazolo[4,3-a]quinazolin-5-yl)-3,5-dihydro-2H-4,1-benzoxazepin-6-yl]-1,1-dimethyl-prop-2-ynyl]-2,2-dimethyl-butanamide] | 
17 | 4.06 | 12.4 | Cc1nnc2nc(N3CCOCc4c(C#CC(C)(C)NC(=O)C5(C(C)(F)F)CC5)cccc43)c3c(F)cccc3n12 [Example 181, 1-(1,1-Difluoroethyl)-N-[3-[1-(6-fluoro-1-methyl-[1,2,4]triazolo[4,3-a]quinazolin-5-yl)-3,5-dihydro-2H-4,1-benzoxazepin-6-yl]-1,1-dimethyl-prop-2-ynyl]cyclopropanecarboxamide] | 
18 | 2.41 | 4.27 | Cc1nnc2nc(N3CCOCc4c(C#CC(C)(C)NC(=O)C5(C(F)(F)F)CC5)cccc43)c3c(F)c(F)ccc3n12 [Example 182, N-[3-[1-(6,7-Difluoro-1-methyl-[1,2,4]triazolo[4,3-a]quinazolin-5-yl)-3,5-dihydro-2H-4,1-benzoxazepin-6-yl]-1,1-dimethyl-prop-2-ynyl]-1-(trifluoromethyl)cyclopropanecarboxamide] | 
19 | 28.4 | 11.8 | Cc1nnc2nc(N3CCCCc4c(C#CC(C)(C)NC(=O)C5(C(F)(F)F)CC5)cccc43)c3c(F)cccc3n12 [Example 183, N-(4-(1-(6-fluoro-1-methyl-[1,2,4]triazolo[4,3-a]quinazolin-5-yl)-2,3,4,5-tetrahydro-1H-benzo[b]azepin-6-yl)-2-methylbut-3-yn-2-yl)-1-(trifluoromethyl)cyclopropane-1-carboxamide] | 
20 | 7.51 | 0.787 | Cc1nnc2nc(N3CCOCc4c(C#CC(C)(C)C(C)(F)F)cccc43)c3c(F)c(F)ccc3n12 [Example 184, 6-(4,4-Difluoro-3,3-dimethyl-pent-1-ynyl)-1-(6,7-difluoro-1-methyl-[1,2,4]triazolo[4,3-a]quinazolin-5-yl)-3,5-dihydro-2H-4,1-benzoxazepine] | 
21 | 4.58 | 1.09 | Cc1nnc2nc(N3CCCCc4c(C#CC5(C)COC5)cccc43)c3c(F)c(F)ccc3n12 [Example 185, 6,7-Difluoro-1-methyl-5-[6-[2-(3-methyloxetan-3-yl)ethynyl]-2,3,4,5-tetrahydro-1-benzazepin-1-yl]-[1,2,4]triazolo[4,3-a]quinazoline] | 
22 | 6.51 | 2.84 | Cc1nnc2nc(N3CCCCc4c(C#CC(C)(C)C#N)cccc43)c3c(F)c(F)ccc3n12 [Example 186, 4-[1-(6,7-Difluoro-1-methyl-[1,2,4]triazolo[4,3-a]quinazolin-5-yl)-2,3,4,5-tetrahydro-1-benzazepin-6-yl]-2,2-dimethyl-but-3-ynenitrile] | 
23 | 12.3 | 1.45 | Cc1nnc2nc(N3CCOCc4c(C#CC(C)(C)C(C)(F)F)cccc43)c3c(F)cccc3n12 [Example 187, 6-(4,4-Difluoro-3,3-dimethyl-pent-1-ynyl)-1-(6-fluoro-1-methyl-[1,2,4]triazolo[4,3-a]quinazolin-5-yl)-3,5-dihydro-2H-4,1-benzoxazepine] | 
24 | 9.86 | 2.12 | Cc1nnc2nc(N3CCCCc4c(C#CC(C)(C)C#N)cccc43)c3c(F)cccc3n12 [Example 188, 4-[1-(6-Fluoro-1-methyl-[1,2,4]triazolo[4,3-a]quinazolin-5-yl)-2,3,4,5-tetrahydro-1-benzazepin-6-yl]-2,2-dimethyl-but-3-ynenitrile] | 
25 | 1.84 | 3.44 | Cc1nnc2nc(N3CCOCc4c(C#CC(C)(C)C#N)cccc43)c3c(F)cccc3n12 [Example 189, 4-[1-(6-Fluoro-1-methyl-[1,2,4]triazolo[4,3-a]quinazolin-5-yl)-3,5-dihydro-2H-4,1-benzoxazepin-6-yl]-2,2-dimethyl-but-3-ynenitrile] | 
26 | 6.91 | 1.46 | Cc1nnc2nc(N3CCOCc4c(C#CC(C)(C)C(F)F)cccc43)c3c(F)cccc3n12 [Example 190, 6-(4,4-Difluoro-3,3-dimethyl-but-1-ynyl)-1-(6-fluoro-1-methyl-[1,2,4]triazolo[4,3-a]quinazolin-5-yl)-3,5-dihydro-2H-4,1-benzoxazepine] | 
